Measurements reported in patent US20260226019A1, “NEGATIVE ALLOSTERIC MODULATORS OF METABOTROPIC GLUTAMATE RECEPTOR 2” (Vanderbilt University, priority 2023, published 2026).

Assays:
[1] = target: T1, human mGlu2 (Homo sapiens, UniProt Q14416); test: mGlu GIRK cell-based thallium flux assay, human mGlu2; conditions: HEK-293 cells co-expressing human mGlu2 and GIRK, EC80 glutamate, single experiment
T1 construct: expressed in transfected cells; host or cells: HEK-293 stably co-expressing GIRK channels
T1 sequence (Q14416 19-872): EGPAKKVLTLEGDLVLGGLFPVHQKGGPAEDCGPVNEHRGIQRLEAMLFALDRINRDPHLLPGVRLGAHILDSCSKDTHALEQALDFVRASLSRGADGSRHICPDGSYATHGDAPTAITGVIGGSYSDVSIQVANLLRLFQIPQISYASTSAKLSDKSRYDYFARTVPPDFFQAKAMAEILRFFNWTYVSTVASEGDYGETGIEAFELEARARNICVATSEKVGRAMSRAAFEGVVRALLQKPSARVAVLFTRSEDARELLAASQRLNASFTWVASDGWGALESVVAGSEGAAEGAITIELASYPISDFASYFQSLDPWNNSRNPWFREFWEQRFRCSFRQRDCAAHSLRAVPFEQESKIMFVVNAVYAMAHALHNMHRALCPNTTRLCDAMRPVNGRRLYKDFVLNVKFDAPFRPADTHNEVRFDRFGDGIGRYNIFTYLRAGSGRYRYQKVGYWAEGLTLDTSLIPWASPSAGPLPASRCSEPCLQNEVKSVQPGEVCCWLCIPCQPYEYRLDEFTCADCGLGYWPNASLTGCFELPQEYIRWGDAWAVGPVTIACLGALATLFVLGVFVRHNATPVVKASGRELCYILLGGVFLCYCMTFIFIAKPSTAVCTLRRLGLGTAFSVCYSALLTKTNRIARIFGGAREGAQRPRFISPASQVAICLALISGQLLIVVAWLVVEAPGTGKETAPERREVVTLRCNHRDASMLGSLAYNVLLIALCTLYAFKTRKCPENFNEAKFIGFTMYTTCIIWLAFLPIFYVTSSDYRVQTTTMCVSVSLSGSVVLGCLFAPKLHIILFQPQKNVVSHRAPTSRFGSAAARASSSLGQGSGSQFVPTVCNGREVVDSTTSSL
Procedure: (§1) Human embryonic kidney (HEK-293) cell lines stably co-expressing human or rat mGlu2 and G protein-coupled inwardly rectifying potassium (GIRK) channels, or human mGlu3 and GIRK, were used for in vitro evaluation of compound activity in thallium flux assay using a fluorescent thallium indicator dye.
(§2) The day before the assay, GIRK cells co-expressing human mGlu3, human or rat mGlu2, as described above, were plated in black-walled, clear-bottomed, amine-coated 384-well plates at a density of 15,000 cells/[…]/well in the assay medium (glutamine-depleted basal DMEM supplemented with 10% dialyzed FBS, 20 mM HEPES, 1 mM sodium pyruvate). Cells were incubated at 37° C. in the presence of 5% CO2. The next day, assay buffer (Hanks balanced salt solution, 20 mM HEPES, 4.16 mM sodium bicarbonate, pH 7.2) was prepared to dilute compounds and Thallos AM fluorescent dye solution. The 2× Thallos dye solution (final concentration 0.34 μM to the cells) was prepared by mixing the dye stock (2.97 mM in DMSO) to 1:1 with 10% pluronic acid before adding to the assay buffer. Cells were washed with assay buffer using a microplate washer to remove the medium, resulting in 20 μL of buffer remaining in each well. […] During the cell dye loading incubation period, a 10-point concentration serial dilution of compound was created from a 10 mM DMSO compound stock by performing a 1:3 serial dilution in DMSO using the Bravo liquid handler. The 2× compound plate was generated by transferring 0.24 μL of the diluted compound in each well to a daughter plate using an Echo acoustic liquid handler. This is further diluted in 40 μL assay buffer, resulting in a range from […] to 1.5 nM final concentration in the assay. The agonist plate (5×) was prepared to include EC80 glutamate concentration (a concentration to elicit 80% of a maximally effective glutamate concentration) in thallium buffer (125 mM sodium bicarbonate, 1 mM magnesium sulfate, 1.8 mM calcium sulfate, 5 mM glucose, 10 mM HEPES, pH 7.2, 12.5 mM thallium sulfate).
(§3) After dye-loading, cell plates were washed with assay buffer to remove excess extracellular dye using a microplate washer, resulting in 20 μL of buffer remaining in each well. After a ten-minute equilibration period, cell, compound and agonist plates were loaded into a Hamamatsu μCell kinetic imaging plate reader equipped with liquid handler to monitor fluorescence changes at 480 nm excitation and 540 nm emission settings. Briefly, after collection of baseline fluorescence, 20 μL of compound was added and incubated for two minutes and twenty seconds. This is immediately followed by adding 10 μL of glutamate-thallium buffer to the wells containing compound. The fluorescent signal was monitored an additional 2.5 minutes after the glutamate addition. Multiple reference wells containing no compound received either no glutamate (for a baseline reference), EC80 glutamate, or ECmax glutamate (for normalization to maximum response). […] Each compound concentration series occurred one time in each plate, and replicates from two or three plates were used in each experimental run. Thallium solutions were handled and disposed of according to guidelines from the Vanderbilt University Chemical Safety department.
(§4) Data were normalized using a static ratio function (F/F0) by dividing every fluorescent measurement by the initial fluorescent value for the corresponding well. The increase in signal resulting from the glutamate/thallium addition of the second add was measured by determining the slope from 3 seconds to 13 seconds after the addition. The average of all baseline slopes (no compound, no glutamate) was determined and this value was subtracted from all other slope values. The average of all ECmax slopes was determined and this value was used to normalize the baseline-corrected slopes to a percent max value (% Emax).

[2] = target: T2, human mGlu3 (Homo sapiens, UniProt Q14832); test: mGlu GIRK cell-based thallium flux assay, human mGlu3; conditions: HEK-293 cells co-expressing human mGlu3 and GIRK, EC80 glutamate, single experiment
T2 construct: expressed in transfected cells; host or cells: HEK-293 stably co-expressing GIRK channels
T2 sequence (Q14832 23-879): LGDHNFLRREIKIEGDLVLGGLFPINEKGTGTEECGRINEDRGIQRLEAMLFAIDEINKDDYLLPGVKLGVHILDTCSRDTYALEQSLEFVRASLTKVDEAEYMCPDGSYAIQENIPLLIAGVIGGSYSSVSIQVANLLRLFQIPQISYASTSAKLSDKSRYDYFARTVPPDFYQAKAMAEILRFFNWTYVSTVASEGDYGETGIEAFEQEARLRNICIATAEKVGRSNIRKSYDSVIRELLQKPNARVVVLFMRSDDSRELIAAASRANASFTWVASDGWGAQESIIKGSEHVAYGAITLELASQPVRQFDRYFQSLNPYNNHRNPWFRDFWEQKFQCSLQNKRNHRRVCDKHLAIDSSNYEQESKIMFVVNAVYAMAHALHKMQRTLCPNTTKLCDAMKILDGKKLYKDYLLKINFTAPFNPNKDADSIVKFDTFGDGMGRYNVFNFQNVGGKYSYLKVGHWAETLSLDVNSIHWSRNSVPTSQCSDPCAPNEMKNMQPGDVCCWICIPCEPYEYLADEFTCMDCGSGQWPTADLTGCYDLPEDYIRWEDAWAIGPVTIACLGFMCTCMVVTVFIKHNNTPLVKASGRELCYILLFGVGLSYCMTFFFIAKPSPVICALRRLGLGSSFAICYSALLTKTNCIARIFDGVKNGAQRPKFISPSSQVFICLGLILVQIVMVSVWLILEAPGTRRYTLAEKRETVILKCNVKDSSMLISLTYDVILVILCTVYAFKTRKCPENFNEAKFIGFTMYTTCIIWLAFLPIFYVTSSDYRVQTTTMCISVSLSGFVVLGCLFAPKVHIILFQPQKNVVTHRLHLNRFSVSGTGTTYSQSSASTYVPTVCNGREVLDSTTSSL
Procedure: as §1, §2, §3, §4

IC50 [1] [nM]	Compound	also measured
435	Cc1nn(CC(C)(C)O)c(C)c1-c1cc(-c2ccc(F)cc2F)cc2c1CNC2=O [Compound 41, 6-(2,4-difluorophenyl)-4-(1-(2-hydroxy-2-methylpropyl)-3,5-dimethyl-1H-pyrazol-4-yl)isoindolin-1-one]	IC50 [2]: > 10000 nM
528	O=C1NCc2c1cc(-c1ccc(F)cc1F)cc2-c1cccnc1N1CCCC1 [Compound 66, 6-(2,4-difluorophenyl)-4-(2-(pyrrolidin-1-yl)pyridin-3-yl)isoindolin-1-one]	IC50 [2]: > 10000 nM
185	CC(=O)Nc1ccc(-c2cc(-c3ccc(F)cc3F)cc3c2CNC3=O)cn1 [Compound 34, N-(5-(6-(2,4-difluorophenyl)-1-oxoisoindolin-4-yl)pyridin-2-yl)acetamide]	Human mGlu3 GIRK IC50 (nM) [2]: Inactive
182	O=C1NCc2c(CN3CCOCC3)cc(-c3ccc(F)cc3F)cc21 [Compound B2, 6-(2,4-difluorophenyl)-4-(morpholinomethyl)isoindolin-1-one]	IC50 [2]: > 10000 nM
291	O=C1NCc2c1cc(-c1ccc(F)cc1F)cc2-c1cnn(C2CC2)c1 [Compound 18, 4-(1-cyclopropyl-1H-pyrazol-4-yl)-6-(2,4-difluorophenyl)isoindolin-1-one]	Human mGlu3 GIRK IC50 (nM) [2]: Inactive
180	O=C1NCc2c(CN3CCSCC3)cc(-c3ccc(F)cc3F)cc21 [Compound B1, 6-(2,4-difluorophenyl)-4-(thiomorpholinomethyl)isoindolin-1-one]	IC50 [2]: 4620 nM
361	CC1(C#N)CCN(c2cc(-c3ccc(F)cc3F)cc3c2CNC3=O)C1 (stereo not shown) [Compound A7, 1-(6-(2,4-difluorophenyl)-1-oxoisoindolin-4-yl)-3-methylpyrrolidine-3-carbonitrile]	Human mGlu3 GIRK IC50 (nM) [2]: Inactive
66	O=C1NCc2c1cc(-c1ccc(F)cc1F)cc2-c1ccc(=O)n(C(F)F)c1 [Compound 40, 4-(1-(difluoromethyl)-6-oxo-1,6-dihydropyridin-3-yl)-6-(2,4-difluorophenyl)isoindolin-1-one]	Human mGlu3 GIRK IC50 (nM) [2]: Inactive
	Cc1cc(-c2cc(-c3ccc(F)cc3F)cc3c2CNC3=O)n(C)n1 [Compound 79, 6-(2,4-difluorophenyl)-4-(1,3-dimethyl-1H-pyrazol-5-yl)isoindolin-1-one]	IC50 [2]: > 10000 nM
340	Cc1cnn(C)c1-c1cc(C2=CCOCC2)cc2c1CNC2=O [Compound 94, 6-(3,6-dihydro-2H-pyran-4-yl)-4-(1,4-dimethyl-1H-pyrazol-5-yl)isoindolin-1-one]	
424	Cc1nn(C)c(C)c1-c1cc(C2=CCOCC2)cc2c1CNC2=O [Compound 92, 6-(3,6-dihydro-2H-pyran-4-yl)-4-(1,3,5-trimethyl-1H-pyrazol-4-yl)isoindolin-1-one]	
2690	O=C1NCc2c1cc(-c1ccc(F)cc1F)cc2-c1ccc2ccncc2c1 [Compound 26, 6-(2,4-difluorophenyl)-4-(isoquinolin-7-yl)isoindolin-1-one]	
380	Cc1cc(-c2cc(C3=CCOCC3)cc3c2CNC3=O)n(C)n1 [Compound 96, 6-(3,6-dihydro-2H-pyran-4-yl)-4-(1,3-dimethyl-1H-pyrazol-5-yl)isoindolin-1-one]	
> 10000	COc1cc(F)c(-c2cc3c(c(-c4cnsc4)c2)CNC3=O)c(F)c1 [Compound 56, 6-(2,6-difluoro-4-methoxyphenyl)-4-(isothiazol-4-yl)isoindolin-1-one]	
118	Cc1ccncc1-c1cc(-c2ccc(F)cc2F)cc2c1CNC2=O [Compound 89, 6-(2,4-difluorophenyl)-4-(4-methylpyridin-3-yl)isoindolin-1-one]	
> 10000	Cc1cc(-c2cc3c(c(-c4cnsc4)c2)CNC3=O)c(F)cc1F [Compound 50, 6-(2,4-difluoro-5-methylphenyl)-4-(isothiazol-4-yl)isoindolin-1-one]	

IC50 [1] [nM]	Compound	also measured
3130	O=C1NCc2c1cc(-c1ccc(F)cc1F)cc2-c1cnc(C(F)(F)F)nc1 [Compound 32, 6-(2,4-difluorophenyl)-4-(2-(trifluoromethyl)pyrimidin-5-yl)isoindolin-1-one]	
> 10000	COc1cc(F)ccc1-c1cc2c(c(-c3cnsc3)c1)CNC2=O [Compound 48, 6-(4-fluoro-2-methoxyphenyl)-4-(isothiazol-4-yl)isoindolin-1-one]	
488	Cc1cc2n(n1)CCN2c1cc(-c2ccc(F)cc2F)cc2c1CNC2=O [Compound A23, 6-(2,4-difluorophenyl)-4-(6-methyl-2,3-dihydro-1H-imidazo[1,2-b]pyrazol-1-yl)isoindolin-1-one]	
	O=C1NCc2c1cc(-c1ccc(F)cc1F)cc2-c1cnn(C2CCCCC2)c1 [Compound 21, 4-(1-cyclohexyl-1H-pyrazol-4-yl)-6-(2,4-difluorophenyl)isoindolin-1-one]	Human mGlu2 GIRK IC50 (nM) [1]: Inactive
853	O=C1NCc2c1cc(-c1ccc(F)cc1F)cc2C1=CCCCO1 [Compound B9, 6-(2,4-difluorophenyl)-4-(3,4-dihydro-2H-pyran-6-yl)isoindolin-1-one]	
3080	Cn1cc(-c2cc(-c3ccc(F)cc3F)cc3c2CNC3=O)cc1C#N [Compound 14, 4-(6-(2,4-difluorophenyl)-1-oxoisoindolin-4-yl)-1-methyl-1H-pyrrole-2-carbonitrile]	
3310	O=C1NCc2c1cc(-c1ccc(F)cc1F)cc2-c1cnc2ccccc2c1 [Compound 25, 6-(2,4-difluorophenyl)-4-(quinolin-3-yl)isoindolin-1-one]	
193	O=C1NCc2c(CN3CC(O)(C(F)(F)F)C3)cc(-c3ccc(F)cc3F)cc21 [Compound B8, 6-(2,4-difluorophenyl)-4-((3-hydroxy-3-(trifluoromethyl)azetidin-1-yl)methyl)isoindolin-1-one]	
2380	O=C1NCc2c1cc(-c1ccc(F)cc1F)cc2-c1ccc2cccnc2c1 [Compound 22, 6-(2,4-difluorophenyl)-4-(quinolin-7-yl)isoindolin-1-one]	
2950	Cc1c(-c2cc(C3CCOCC3)cc3c2CNC3=O)cnn1C [Compound 99, 4-(1,5-dimethyl-1H-pyrazol-4-yl)-6-(tetrahydro-2H-pyran-4-yl)isoindolin-1-one]	
	O=C1NCc2c1cc(-c1ccc(F)cc1F)cc2-c1cc2ccccc2s1 [Compound 28, 4-(benzo[b]thiophen-2-yl)-6-(2,4-difluorophenyl)isoindolin-1-one]	Human mGlu2 GIRK IC50 (nM) [1]: Inactive
3480	COc1ccc(-c2cc3c(c(-c4cnsc4)c2)CNC3=O)c(F)c1F [Compound 49, 6-(2,3-difluoro-4-methoxyphenyl)-4-(isothiazol-4-yl)isoindolin-1-one]	
> 10000	O=C1NCc2c1cc(-c1ccc(F)cc1F)cc2-c1cnn(C(F)F)c1 [Compound 8, 4-(1-(difluoromethyl)-1H-pyrazol-4-yl)-6-(2,4-difluorophenyl)isoindolin-1-one]	
	COc1cc(C#N)ccc1-c1cc2c(c(-c3cnsc3)c1)CNC2=O [Compound 53, 4-(7-(isothiazol-4-yl)-3-oxoisoindolin-5-yl)-3-methoxybenzonitrile]	Human mGlu2 GIRK IC50 (nM) [1]: Inactive
> 10000	O=C1NCc2c1cc(-c1cc(F)c(F)c(F)c1)cc2-c1cnsc1 [Compound 59, 4-(isothiazol-4-yl)-6-(3,4,5-trifluorophenyl)isoindolin-1-one]	
> 10000	N#Cc1c(F)ccc(-c2cc3c(c(-c4cnsc4)c2)CNC3=O)c1F [Compound 55, 2,6-difluoro-3-(7-(isothiazol-4-yl)-3-oxoisoindolin-5-yl)benzonitrile]	
